Data from paper PMC3783901, “A spectrophotometric coupled enzyme assay to measure the activity of succinate dehydrogenase^” (Analytical Biochemistry, 2013).
Like-named read-outs stand apart in the source and are kept apart here.

Tests used:
[1] = target: T1, complex II (succinate:ubiquinone oxidoreductase, succinate dehydrogenase) in bovine heart submitochondrial particles (Bos taurus, UniProt P31039+P35720+Q3T189+Q95123); test: coupled FumC-MaeB assay of succinate oxidation in SMPs, NADPH absorbance; format: biochemical; conditions: 5 mM succinate, pH 7.4, 32 °C, 2 mM NADP+, 2 mM MgSO4
T1 construct: gene SDHA; native four-subunit complex in submitochondrial particles from bovine heart mitochondria, not isolated; dicarboxylate site in SDHA, ubiquinone site at SDHB/SDHC/SDHD
T1 sequence (P31039 44-665): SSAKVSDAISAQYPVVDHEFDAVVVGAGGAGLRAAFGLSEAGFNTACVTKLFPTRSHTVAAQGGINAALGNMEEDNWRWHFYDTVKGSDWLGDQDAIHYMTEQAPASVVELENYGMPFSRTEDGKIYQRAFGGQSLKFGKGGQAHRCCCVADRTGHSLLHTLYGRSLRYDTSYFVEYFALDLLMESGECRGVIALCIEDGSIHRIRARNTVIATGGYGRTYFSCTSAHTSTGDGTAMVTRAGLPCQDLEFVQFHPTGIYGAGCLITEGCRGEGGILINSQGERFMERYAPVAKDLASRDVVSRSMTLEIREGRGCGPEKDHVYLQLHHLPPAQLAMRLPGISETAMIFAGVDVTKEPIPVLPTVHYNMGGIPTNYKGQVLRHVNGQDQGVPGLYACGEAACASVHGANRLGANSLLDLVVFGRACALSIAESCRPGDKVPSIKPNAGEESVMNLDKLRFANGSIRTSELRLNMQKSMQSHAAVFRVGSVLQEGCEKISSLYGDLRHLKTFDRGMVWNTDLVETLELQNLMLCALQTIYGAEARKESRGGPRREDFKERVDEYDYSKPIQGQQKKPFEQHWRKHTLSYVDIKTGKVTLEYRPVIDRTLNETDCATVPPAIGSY
T1 sequence (Q3T189 29-280): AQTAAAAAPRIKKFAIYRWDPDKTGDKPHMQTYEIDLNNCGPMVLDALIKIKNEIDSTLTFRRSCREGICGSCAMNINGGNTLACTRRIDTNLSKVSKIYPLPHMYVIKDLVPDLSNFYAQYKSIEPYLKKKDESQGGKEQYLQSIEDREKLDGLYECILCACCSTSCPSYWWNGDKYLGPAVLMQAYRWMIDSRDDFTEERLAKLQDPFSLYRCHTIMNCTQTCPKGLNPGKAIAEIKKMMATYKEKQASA
T1 sequence (P35720 30-169): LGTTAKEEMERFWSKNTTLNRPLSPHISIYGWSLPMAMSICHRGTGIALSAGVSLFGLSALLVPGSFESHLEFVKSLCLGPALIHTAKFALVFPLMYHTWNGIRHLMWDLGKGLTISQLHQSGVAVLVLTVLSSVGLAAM
T1 sequence (Q95123 56-158): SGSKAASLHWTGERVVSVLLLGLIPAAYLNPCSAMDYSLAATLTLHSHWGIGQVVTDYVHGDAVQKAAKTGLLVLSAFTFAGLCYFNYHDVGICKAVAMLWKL
From the text: coupled FumC-MaeB assay of succinate oxidation in SMPs, NADPH absorbance on complex II (succinate:ubiquinone oxidoreductase, succinate dehydrogenase) in bovine heart submitochondrial particles | atpenin A5, an inhibitor that binds in the complex II ubiquinone-binding site, has an IC50 | malonate, an inhibitor that binds in the complex II flavin site, has an IC50

[2] = target: FumC (fumarate hydratase) (Escherichia coli, UniProt P05042); conditions: pH 7.4, 32 °C, 10 mM Tris-SO4, 2 mM MgSO4, 1 mM K2SO4, 2 mM NADP+, 300 μg/ml MaeB; kcat apparently per tetramer
FumC (fumarate hydratase), sequence (P05042 whole entry): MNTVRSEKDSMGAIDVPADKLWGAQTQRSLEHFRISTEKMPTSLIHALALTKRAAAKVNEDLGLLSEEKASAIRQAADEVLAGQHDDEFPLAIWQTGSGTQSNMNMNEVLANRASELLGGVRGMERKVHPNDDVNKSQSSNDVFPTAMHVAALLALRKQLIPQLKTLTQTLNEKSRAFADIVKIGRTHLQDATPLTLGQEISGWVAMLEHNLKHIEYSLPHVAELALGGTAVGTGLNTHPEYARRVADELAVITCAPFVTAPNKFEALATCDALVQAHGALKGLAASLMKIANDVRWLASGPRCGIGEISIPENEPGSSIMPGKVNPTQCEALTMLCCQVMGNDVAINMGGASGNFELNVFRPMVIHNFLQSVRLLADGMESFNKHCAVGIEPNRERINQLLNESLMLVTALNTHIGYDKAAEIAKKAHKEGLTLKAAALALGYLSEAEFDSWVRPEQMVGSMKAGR

[3] = target: T1, complex II (succinate:ubiquinone oxidoreductase, succinate dehydrogenase) in bovine heart submitochondrial particles; test: coupled FumC-MaeB assay of succinate oxidation in SMPs, NADPH absorbance; format: biochemical; conditions: pH 7.4, 32 °C, 2 mM NADP+, 2 mM MgSO4, endogenous ubiquinone-10, turnover to O2, kcat uses a published complex II content
purified protein [4] = substrate: NC(=O)c1ccc[n+]([C@@H]2O[C@H](COP(=O)(O)OP(=O)(O)OC[C@H]3O[C@@H](n4cnc5c(N)ncnc54)[C@H](OP(=O)(O)O)[C@@H]3O)[C@@H](O)[C@H]2O)c1; test: purified protein; conditions: 40 mM malate, pH 7.4, 32 °C, 10 mM Tris-SO4, 2 mM MgSO4, 1 mM K2SO4
purified protein [5] = substrate: O=C(O)C[C@H](O)C(=O)O; test: purified protein; conditions: 4 mM NADP+, pH 7.4, 32 °C, 10 mM Tris-SO4, 2 mM MgSO4, 1 mM K2SO4, kcat apparently per octamer, malate stereo not given

COc1[nH]c(=O)c(C(=O)[C@@H](C)C[C@H](C)[C@@H](Cl)CCl)c(O)c1OC [atpenin A5]
IC50 ([1]; ubiquinone-binding site, full respiratory chain turnover to O2): 0.0024 ± 0.0012 µM

O=C(O)/C=C/C(=O)O [fumarate]
Km [2]: 64 ± 7.8 µM

O=C(O)CC(=O)O [malonate]
IC50 ([1]; flavin (succinate) site, read-out: IC50): 96 ± 1.3 µM

O=C(O)CCC(=O)O [succinate]
Km [3]: 410 ± 55 µM

B1: MaeB (oxaloacetate decarboxylating malic dehydrogenase) (Escherichia coli K-12) (protein)
chain: MDDQLKQSALDFHEFPVPGKIQVSPTKPLATQRDLALAYSPGVAAPCLEIEKDPLKAYKYTARGNLVAVISNGTAVLGLGNIGALAGKPVMEGKGVLFKKFAGIDVFDIEVDELDPDKFIEVVAALEPTFGGINLEDIKAPECFYIEQKLRERMNIPVFHDDQHGTAIISTAAILNGLRVVEKNISDVRMVVSGAGAAAIACMNLLVALGLQKHNIVVCDSKGVIYQGREPNMAETKAAYAVVDDGKRTLDDVIEGADIFLGCSGPKVLTQEMVKKMARAPMILALANPEPEILPPLAKEVRPDAIICTGRSDYPNQVNNVLCFPFIFRGALDVGATAINEEMKLAAVRAIAELAHAEQSEVVASAYGDQDLSFGPEYIIPKPFDPRLIVKIAPAVAKAAMESGVATRPIADFDVYIDKLTEFVYKTNLFMKPIFSQARKAPKRVVLPEGEEARVLHATQELVTLGLAKPILIGRPNVIEMRIQKLGLQIKAGVDFEIVNNESDPRFKEYWTEYFQIMKRRGVTQEQAQRALISNPTVIGAIMVQRGEADAMICGTVGDYHEHFSVVKNVFGYRDGVHTAGAMNALLLPSGNTFIADTYVNDEPDAEELAEITLMAAETVRRFGIEPRVALLSHSNFGSSDCPSSSKMRQALELVRERAPELMIDGEMHGDAALVEAIRNDRMPDSSLKGSANILVMPNMEAARISYNLLRVSSSEGVTVGPVLMGVAKPVHVLTPIASVRRIVNMVALAVVEAQTQPL
Km (purified protein [4]): 52 ± 2.6 µM | Km (purified protein [5]): 7300 ± 900 µM | kcat (purified protein [5]): 92 ± 0.93 s⁻¹
